In assay [1] the target is Tsr (thiostrepton resistance methyltransferase) (Streptomyces azureus, UniProt P18644). Put plainly: isothermal titration calorimetry, single-set-of-sites fit. In kind it is binding. (In general: Isothermal titration calorimetry measures the heat released or taken up as one component is titrated into another.)
The target of assay [2] is Tsr (thiostrepton resistance methyltransferase) (Streptomyces azureus, UniProt P18644, N129A). Put plainly: biochemical. Type of assay: binding.
The target of assay [3] is Tsr (thiostrepton resistance methyltransferase) (Streptomyces azureus, UniProt P18644, R135A). Put plainly: biochemical. In kind it is binding.
Assay [4] deals with Tsr (thiostrepton resistance methyltransferase) (Streptomyces azureus, UniProt P18644, R165A). Description: biochemical. Type of assay: binding.
Assay [5] deals with Tsr (thiostrepton resistance methyltransferase) (Streptomyces azureus, UniProt P18644, R165K). Put plainly: biochemical.
Assay [6] addresses Tsr (thiostrepton resistance methyltransferase) (Streptomyces azureus, UniProt P18644, N129D). Put plainly: biochemical.
For assay [7], the target named is Tsr (thiostrepton resistance methyltransferase) (Streptomyces azureus, UniProt P18644, R135K). Put plainly: biochemical.

Turning to `Nc1ncnc2c1ncn2[C@@H]1O[C@H](CSCC[C@H](N)C(=O)O)[C@@H](O)[C@H]1O` [SAH, S-adenosyl-L-homocysteine], the Kd in assay [1] was found to be 24.4 µM; in assay [2], 16.4 µM; in assay [3] it was 11 µM; in assay [4] it was 20.5 µM.

Take `C[S+](CC[C@H](N)C(=O)O)C[C@H]1O[C@@H](n2cnc3c(N)ncnc32)[C@H](O)[C@@H]1O` (stereo partly drawn) [SAM, S-adenosyl-L-methionine]: the equilibrium dissociation constant (Kd) in assay [1] came to 107 µM; in assay [2], 493 µM; in assay [3] it was 614 µM; in assay [4], 189 µM; in assay [5], 97.1 µM; in assay [6], 411 µM. In assay [7], this compound gave a Kd of 142 µM.

The term Kd denotes the concentration at which binding is half-saturated.

Source of the values: article PMC4661090 (FEBS letters, 2015).
